These results are taken from patent US20230322769A1, “HETEROAROMATIC RING COMPOUND AS RET KINASE INHIBITOR, AND PREPARATION AND USE THEREOF” (JIANGSU CHIA TAI FENGHAI PHARMACEUTICAL CO., LTD., priority 2020, published 2023).

Data set [1] has as its system Ba/F3 KIF5B-RET-V804M cells. The data set can be described thus: Ba/F3 KIF5B-RET-V804M cell inhibition (CellTiter-Glo). It is filed as cell-based. The settings on record: Mus musculus, BaF3, 72 h. How it is done: Activity Experiment 3: Inhibition of Ba/F3 KIF5B-RET Cells by Prepared Compounds Ba/F3 KIF5B-RET, Ba/F3KIF5B-RET-V804M, Ba/F3 RET-M918T and Ba/F3 KIF5B-RET-G810R cells growing in log phase were harvested and counted using a […]. The cell viability was determined by the trypan blue exclusion method, and the cell viability was kept over 90%. The cell concentration was adjusted, and 90 μL of the cell suspension was added to a 96-well plate. The cells in the 96-well plate were incubated overnight at 37° C. with 5% CO2 and 95% humidity. Corresponding gradient concentrations of drug solutions (the maximum concentration was 1000 nM) were added to the 96-well plate inoculated with cells at 10 μL/well. Triplicate wells were set per drug concentration, and the final concentration of DMSO was 0.1%. The drug-treated cells in the 96-well plate were incubated for another 72 h at 37° C. with 5% CO2 and 95% humidity. After the drug treatment was completed, 100 μL of CellTiter-Glo reagent was added to each well. The cell plate was shaken on an orbital shaker for 5 min to lyse the cells and then let stand at room temperature for 20 min to stabilize the luminescence signals, and then the luminescence values were read. The data were analyzed using the GraphPad Prism 5.0 software. Dose-response curves were fit to the data using nonlinear S-curve regression, and IC50 was calculated from the curves.

The test system of data set [2] is BA/F3 KIF5B-RET graft tumor. The experiment in a line: Mouse subcutaneous BA/F3 KIF5B-RET graft tumor model. It is filed as in vivo.
The target of the next data set is FGFR2 (Homo sapiens (Human), UniProt P21802). The data set can be described thus: HTRF kinase activity assay, FGFR2. In kind it is biochemical. The method, then: (§1) Activity Experiment 8: Inhibition of FGFR Family Kinases' Activity by Prepared Compounds The compounds were assayed for activity IC50 against the FGFR family kinases. Related kinases were purchased from Carna and Signalchem. The activity assay method for the related kinases was established by homogeneous time-resolved fluorescence (HTRF), and the inhibitory activity of the compounds was determined. […] The kinases and compounds were pre-incubated for 10 min, and then ATP and substrate were added to start the reaction. All the enzyme-catalyzed reactions were carried out at 25° C. for 40 min. After the enzyme-catalyzed reactions were completed, 5 μL of TK antibody-cryptate and streptavidin-XL665 (the reaction concentration of streptavidin-XL665 was 62.5 nM) were added to the reaction mixtures, and the mixtures were incubated at 25° C. for another 60 min.
FGFR2, sequence (P21802 22-821): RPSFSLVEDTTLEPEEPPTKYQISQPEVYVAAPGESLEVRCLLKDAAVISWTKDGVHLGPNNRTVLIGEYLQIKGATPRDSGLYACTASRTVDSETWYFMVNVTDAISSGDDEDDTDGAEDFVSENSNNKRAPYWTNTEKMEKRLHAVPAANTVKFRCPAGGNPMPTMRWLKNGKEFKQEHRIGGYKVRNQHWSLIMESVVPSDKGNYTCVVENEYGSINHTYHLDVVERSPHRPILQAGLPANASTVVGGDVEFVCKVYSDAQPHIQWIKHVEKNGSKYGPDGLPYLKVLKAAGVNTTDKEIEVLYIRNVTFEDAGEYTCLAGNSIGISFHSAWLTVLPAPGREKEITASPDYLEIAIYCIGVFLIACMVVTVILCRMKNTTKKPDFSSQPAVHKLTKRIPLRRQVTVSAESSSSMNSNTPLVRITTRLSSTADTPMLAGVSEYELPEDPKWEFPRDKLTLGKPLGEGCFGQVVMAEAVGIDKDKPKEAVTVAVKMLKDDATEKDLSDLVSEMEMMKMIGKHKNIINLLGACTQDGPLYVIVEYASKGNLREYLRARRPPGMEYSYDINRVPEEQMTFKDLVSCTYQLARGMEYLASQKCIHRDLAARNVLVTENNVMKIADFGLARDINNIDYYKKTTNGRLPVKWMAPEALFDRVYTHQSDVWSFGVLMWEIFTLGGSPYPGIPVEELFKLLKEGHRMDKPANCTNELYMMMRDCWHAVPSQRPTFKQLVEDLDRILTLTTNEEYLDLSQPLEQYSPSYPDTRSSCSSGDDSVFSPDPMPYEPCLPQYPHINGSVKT

The next data set addresses FGFR2 K641R (Homo sapiens (Human), UniProt P21802, K641R). The data set can be described thus: HTRF kinase activity assay, FGFR2 K641R. In kind it is biochemical. How it is done: as §1
The target of another data set is FGFR3 (Homo sapiens (Human), UniProt P22607). The experiment in a line: HTRF kinase activity assay, FGFR3. In kind it is biochemical. The method, then: (§2) Activity Experiment 8: Inhibition of FGFR Family Kinases' Activity by Prepared Compounds The compounds were assayed for activity IC50 against the FGFR family kinases. Related kinases were purchased from Carna and Signalchem.
FGFR3, sequence (P22607 23-806): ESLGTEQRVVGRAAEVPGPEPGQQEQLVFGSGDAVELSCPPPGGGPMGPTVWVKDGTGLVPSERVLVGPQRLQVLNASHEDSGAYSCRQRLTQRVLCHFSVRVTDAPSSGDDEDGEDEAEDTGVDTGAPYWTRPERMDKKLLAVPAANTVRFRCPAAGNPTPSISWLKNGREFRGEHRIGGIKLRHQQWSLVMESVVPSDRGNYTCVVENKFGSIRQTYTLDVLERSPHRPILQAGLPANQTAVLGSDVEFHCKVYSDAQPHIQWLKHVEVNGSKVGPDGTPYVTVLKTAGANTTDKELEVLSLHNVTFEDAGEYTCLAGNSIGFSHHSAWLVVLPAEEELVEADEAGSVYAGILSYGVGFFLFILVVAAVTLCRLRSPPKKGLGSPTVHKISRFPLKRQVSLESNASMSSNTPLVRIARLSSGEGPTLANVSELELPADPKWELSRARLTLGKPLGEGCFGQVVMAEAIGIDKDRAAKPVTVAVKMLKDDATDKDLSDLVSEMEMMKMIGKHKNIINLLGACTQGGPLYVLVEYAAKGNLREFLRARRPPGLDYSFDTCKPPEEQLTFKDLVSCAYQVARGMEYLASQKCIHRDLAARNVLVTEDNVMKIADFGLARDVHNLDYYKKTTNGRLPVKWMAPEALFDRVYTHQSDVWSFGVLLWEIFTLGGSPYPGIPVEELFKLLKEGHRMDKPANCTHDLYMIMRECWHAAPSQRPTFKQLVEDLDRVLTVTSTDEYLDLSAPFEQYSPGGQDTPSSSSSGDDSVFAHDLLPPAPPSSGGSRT
(§3) The activity assay method for the related kinases was established by homogeneous time-resolved fluorescence (HTRF), and the inhibitory activity of the compounds was determined. A 5 μL reaction mixture was prepared, comprising 1× enzymatic buffer (Cisbio, HTRF KinEASE™-TK), 5 mM MgCl2, 1 mM DTT, 1 μM TK substrate-biotin (Cisbio, HTRF KinEASE™-TK), corresponding concentrations of ATP and related kinases, and gradient concentrations of compounds.
(§4) The kinases and compounds were pre-incubated for 10 min, and then ATP and substrate were added to start the reaction. All the enzyme-catalyzed reactions were carried out at 25° C. for 40 min. After the enzyme-catalyzed reactions were completed, 5 μL of TK antibody-cryptate and streptavidin-XL665 (the reaction concentration of streptavidin-XL665 was 62.5 nM) were added to the reaction mixtures, and the mixtures were incubated at 25° C. for another 60 min.
Background: TR-FRET usually uses a lanthanide donor and a delayed reading to cut background.

The target of another data set is FGFR3 K650E (Homo sapiens (Human), UniProt P22607, K650E). The experiment in a line: HTRF kinase activity assay, FGFR3 K650E. It is filed as biochemical. The method, then: as §2, §3, §4
FGFR3 K650E, sequence (P22607 23-806 K650E): as the sequence (P22607 23-806) above, with K628E counted along it
A further data set deals with hERG potassium channel (Homo sapiens (Human), UniProt Q12809). The experiment in a line: Inhibition of hERG potassium channel, whole-cell patch clamp in HEK293 cells. The settings on record: read-out: IC50 for inhibition of hERG potassium channel; HEK293 cells stably expressing hERG, patch clamp.
hERG potassium channel, sequence (Q12809 whole entry): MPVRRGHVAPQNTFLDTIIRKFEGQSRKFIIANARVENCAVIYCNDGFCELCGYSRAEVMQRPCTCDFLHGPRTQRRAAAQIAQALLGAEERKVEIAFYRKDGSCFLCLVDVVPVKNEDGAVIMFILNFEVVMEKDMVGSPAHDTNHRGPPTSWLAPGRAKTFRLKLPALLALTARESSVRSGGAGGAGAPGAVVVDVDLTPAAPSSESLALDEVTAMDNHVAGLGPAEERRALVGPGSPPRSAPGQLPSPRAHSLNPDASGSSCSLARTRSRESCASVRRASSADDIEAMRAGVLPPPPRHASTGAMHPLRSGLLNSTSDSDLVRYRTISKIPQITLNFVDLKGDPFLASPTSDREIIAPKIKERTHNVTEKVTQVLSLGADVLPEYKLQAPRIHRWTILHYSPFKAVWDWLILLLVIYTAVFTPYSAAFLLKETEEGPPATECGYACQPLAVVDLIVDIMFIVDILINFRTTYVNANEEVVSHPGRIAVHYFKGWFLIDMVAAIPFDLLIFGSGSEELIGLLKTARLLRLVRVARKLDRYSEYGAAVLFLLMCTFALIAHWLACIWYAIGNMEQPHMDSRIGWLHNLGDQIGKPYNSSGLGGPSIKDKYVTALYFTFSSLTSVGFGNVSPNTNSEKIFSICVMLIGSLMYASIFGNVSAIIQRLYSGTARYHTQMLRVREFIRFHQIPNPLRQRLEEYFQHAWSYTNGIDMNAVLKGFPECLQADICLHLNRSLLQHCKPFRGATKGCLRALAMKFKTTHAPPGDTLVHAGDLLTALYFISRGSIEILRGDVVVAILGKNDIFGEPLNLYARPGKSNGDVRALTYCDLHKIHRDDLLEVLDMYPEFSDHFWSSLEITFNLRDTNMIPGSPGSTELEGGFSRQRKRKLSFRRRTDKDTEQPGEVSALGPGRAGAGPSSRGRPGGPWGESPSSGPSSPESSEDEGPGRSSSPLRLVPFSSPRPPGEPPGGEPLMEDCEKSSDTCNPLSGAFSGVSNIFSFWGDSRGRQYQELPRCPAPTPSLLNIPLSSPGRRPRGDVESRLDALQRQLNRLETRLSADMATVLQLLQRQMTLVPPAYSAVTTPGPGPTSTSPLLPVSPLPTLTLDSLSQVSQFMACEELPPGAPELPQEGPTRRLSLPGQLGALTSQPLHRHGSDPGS
The target in the next data set is RET wild type (RET WT) (Homo sapiens (Human), UniProt P07949). The data set can be described thus: HTRF kinase activity assay, RET wild type. In kind it is biochemical. The settings on record: 1 μM ATP.
RET wild type (RET WT), sequence (P07949 29-1114): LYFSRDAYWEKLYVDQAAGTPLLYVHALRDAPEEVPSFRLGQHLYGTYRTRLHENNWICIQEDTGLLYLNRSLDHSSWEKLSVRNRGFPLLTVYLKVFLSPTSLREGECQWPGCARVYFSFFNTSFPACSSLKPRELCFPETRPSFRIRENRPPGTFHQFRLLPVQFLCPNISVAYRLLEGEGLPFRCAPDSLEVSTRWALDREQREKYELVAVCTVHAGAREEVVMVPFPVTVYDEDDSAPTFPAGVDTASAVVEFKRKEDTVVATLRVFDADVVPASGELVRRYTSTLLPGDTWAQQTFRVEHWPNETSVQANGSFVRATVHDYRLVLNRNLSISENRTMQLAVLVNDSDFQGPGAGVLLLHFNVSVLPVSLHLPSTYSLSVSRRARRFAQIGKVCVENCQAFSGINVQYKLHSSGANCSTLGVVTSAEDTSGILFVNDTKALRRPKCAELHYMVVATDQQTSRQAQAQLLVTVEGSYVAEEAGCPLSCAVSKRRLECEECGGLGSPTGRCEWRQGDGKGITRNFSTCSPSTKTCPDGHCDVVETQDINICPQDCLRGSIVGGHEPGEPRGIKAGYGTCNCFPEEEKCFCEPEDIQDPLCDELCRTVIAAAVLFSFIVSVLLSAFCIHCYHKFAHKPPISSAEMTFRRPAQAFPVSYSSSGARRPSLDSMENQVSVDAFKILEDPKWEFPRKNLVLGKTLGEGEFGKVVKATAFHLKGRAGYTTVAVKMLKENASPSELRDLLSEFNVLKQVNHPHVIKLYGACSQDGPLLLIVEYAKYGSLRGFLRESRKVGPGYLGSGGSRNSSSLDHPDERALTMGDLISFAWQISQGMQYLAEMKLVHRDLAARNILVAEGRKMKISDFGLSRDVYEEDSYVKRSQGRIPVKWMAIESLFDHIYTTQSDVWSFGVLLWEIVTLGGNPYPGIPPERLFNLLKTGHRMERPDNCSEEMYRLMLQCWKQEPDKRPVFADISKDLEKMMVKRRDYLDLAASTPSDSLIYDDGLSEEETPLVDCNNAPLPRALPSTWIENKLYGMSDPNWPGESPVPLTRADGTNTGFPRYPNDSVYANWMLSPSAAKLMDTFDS
In the next data set the target is KDR (VEGFR2) (Homo sapiens (Human), UniProt P35968). The experiment in a line: HTRF kinase activity assay, KDR. In kind it is biochemical. The settings on record: 20 μM ATP.
The mark [3] stands for this setting: 30 mg/kg b.i.d. intragastric, Day 11.
Where [4] appears, read: 30 mg/kg b.i.d. intragastric, Day 15.

FGFR2 K641R, sequence (P21802 22-821 K641R): as the sequence (P21802 22-821) above, with K620R counted along it

Consider `COc1ccc(CN2C3CC2CN(c2ccc(-c4cc(OCC(C)(C)O)cn5ncc(C#N)c45)cn2)C3)cn1` [Selpercatinib, selpercatinib, reference compound], for which the IC50 (usually the concentration needed to halve the response being measured) is 38.4 nM in [1]; 20.6 nM at FGFR2; 11.2 nM against FGFR2 K641R; 349 nM against FGFR3; 45.9 nM against FGFR3 K650E; 2750 nM at hERG potassium channel. In addition, the “Volume of graft tumor (mean ± SD)” value in [2] (setting [3]) is listed as 19.68 ± 17.97 mm^3; in data set [2] (setting [4]), 13.59 ± 12.43 mm^3.
For the compound `[2H]C([2H])([2H])N1CCN(c2cc(-c3ccc(N4CC5CC(C4)N5Cc4ccc(OC)nc4)nc3)c3c(C#N)cnn3c2)CC1` [Compound 94], the IC50 was determined as 4.62 nM against RET wild type (RET WT); 169 nM against KDR (VEGFR2); 99 nM in [1]; 26.5 nM at FGFR2; 7.39 nM on FGFR2 K641R; 309 nM against FGFR3. Half-maximal inhibition against FGFR3 K650E (IC50) required 36.5 nM. Also, the “Volume of graft tumor (mean ± SD)” value in data set [2] (30 mg/kg b.i.d. intragastric, Day 0) was found to be 96.85 ± 2.24 mm^3; in data set [2] (setting [3]), 12.19 ± 27.25 mm^3; in data set [2] (setting [4]) it was 8.00 ± 17.89 mm^3; in data set [2] (30 mg/kg q.d. intragastric, Day 0) it was 96.95 ± 1.48 mm^3; in data set [2] (30 mg/kg q.d. intragastric, Day 11), 14.57 ± 23.42 mm^3; in data set [2] (30 mg/kg q.d. intragastric, Day 15), 9.73 ± 16.31 mm^3. The “Volume of graft tumor (mean ± SD)” value in data set [2] (60 mg/kg q.d. intragastric, Day 0) came out at 96.76 ± 2.34 mm^3; in data set [2] (60 mg/kg q.d. intragastric, Day 11), 6.11 ± 14.98 mm^3; in data set [2] (60 mg/kg q.d. intragastric, Day 15), 3.75 ± 9.19 mm^3.
